Test results from US20260174770A1, “COMBINATION THERAPY FOR TREATING CANCER” (SCORPION THERAPEUTICS, INC., priority 2022, published 2026).
pIC50: −log10 of the molar value. Entries after “also recorded” stand apart in the source; their conditions may differ.

Tests used:
[1] = system: Cal33 (H1047R PI3Kα) xenograft tumors; conditions: mouse, in vivo
Method: All animal handling and treatment procedures were performed according to the approved Institutional Animal Care and Use Committee guidelines following the Association for Assessment and Accreditation of Laboratory Animal Care guidance. Cell line xenografts were performed in BALB/c nude mice except for the T47D model that used NSG mice implanted with 17-beta estradiol tablets (0.5 mg, 90-day release). PK/PD studies with xenograft tumors were established using standard protocols. PDX models were performed by XenoSTART (San Antonio, TX).

[2] = system: pAKT (S473), DETROIT562 cells (PI3Kα H1047R); experiment: pAKT (S473) HTRF in DETROIT562 cells; type: cell-based; conditions: Homo sapiens, Detroit 562, read-out: Alpelisib pAKT HTRF GMean GI50 (95% CI), 1 hour
Method: (§2) A 384-well phospho-AKT (S473) HTRF (PerkinElmer #64AKSPEH) assay was used for target engagement. Each well was seeded with cell numbers indicated in Supplementary Table S3 in a volume of 12.5 uL in phenol red-free media and then treated for 1 hour at 37° C., before reading on a PHERAstar plate reader.

[3] = system: pAKT (S473), HCC1954 cells (PI3Kα H1047R); experiment: pAKT (S473) HTRF in HCC1954 cells; type: cell-based; conditions: Homo sapiens, read-out: Alpelisib pAKT HTRF GMean GI50 (95% CI), 1 hour
Method: as §2

[4] = system: pAKT (S473), NCIH1048 cells (PI3Kα H1047R + K111R); experiment: pAKT (S473) HTRF in NCIH1048 cells; type: cell-based; conditions: Homo sapiens, NCI-H1048, read-out: Alpelisib pAKT HTRF GMean GI50 (95% CI), 1 hour
Method: as §2

[5] = system: pAKT (S473), CAL148 cells (PI3Kα H1047R + D350N); experiment: pAKT (S473) HTRF in CAL148 cells; type: cell-based; conditions: Homo sapiens, CAL-148, read-out: Alpelisib pAKT HTRF GMean GI50 (95% CI), 1 hour
Method: as §2

CAL148 cells = experiment: Cell viability (CellTiterGlo) in CAL148 cells; type: cell-based; conditions: Homo sapiens, CAL-148, read-out: Compound 1 CTGlo GMean IC50 (95% CI); CAL148 (H1047R + D350N), 72 hours
Method: (§1) Cell viability was measured using CellTiterGlo (Promega #G9243). Indicated cell lines were seeded according to Supplementary Table S3 in 50 μL of media in 384 well plates, with 72 hours of treatment at 37° C. with 5% CO2.

BT20 cells = experiment: Cell viability (CellTiterGlo) in BT20 cells; type: cell-based; conditions: Homo sapiens, BT-20, read-out: Compound 1 CTGlo GMean IC50 (95% CI); BT20 (H1047R + P539R), 72 hours
Method: as §1

[6] = system: AurB kinase, phospho-H3 (Ser10); experiment: Cellular AurB inhibition, phospho-H3 (Ser10); type: cell-based; conditions: 1-hour post treatment; Compound 1 up to 10 μM
[7] = system: approximately 900 tumor cell lines; experiment: Broad Institute PRISM high throughput cell viability screen; type: cell-based
Text: Compound 1 was submitted to the Broad Institute PRISM high throughput cell viability screen (www.theprismlab.org/).

[8] = system: PIK3CA-mutant, ER+/HER2+ PDX tumor; experiment: PDX model, combination with palbociclib; type: in vivo; conditions: palbociclib 50 mg/kg QD
SKBR3 cells = experiment: Cell viability (CellTiterGlo) in SKBR3 cells; type: cell-based; conditions: Homo sapiens, SK-BR-3, read-out: Compound 1 CTGlo GMean IC50 (95% CI); SKBR3 (WT), 72 hours
Method: as §1

DETROIT562 cells = experiment: Cell viability (CellTiterGlo) in DETROIT562 cells; type: cell-based; conditions: Homo sapiens, Detroit 562, read-out: Compound 1 CTGlo GMean IC50 (95% CI); DETROIT562 (H1047R), 72 hours
Method: as §1

AurB kinase = biological target: T1, AurB kinase (Homo sapiens, UniProt Q96GD4); experiment: AurB kinase inhibition (kinase profiling); type: biochemical
T1 construct: purchased Eurofins Cerep (KinaseProfiler, IC50Profiler)
T1 sequence (Q96GD4 whole entry): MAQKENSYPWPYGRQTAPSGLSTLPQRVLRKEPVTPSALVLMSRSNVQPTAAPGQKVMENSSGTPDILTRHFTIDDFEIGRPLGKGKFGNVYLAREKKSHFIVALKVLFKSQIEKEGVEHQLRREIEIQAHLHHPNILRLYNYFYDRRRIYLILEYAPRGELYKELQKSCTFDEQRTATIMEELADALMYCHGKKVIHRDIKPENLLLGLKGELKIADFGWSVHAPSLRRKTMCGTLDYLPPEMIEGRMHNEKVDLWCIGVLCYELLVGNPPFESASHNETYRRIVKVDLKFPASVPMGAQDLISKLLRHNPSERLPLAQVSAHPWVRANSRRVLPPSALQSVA

SMILES: Cc1nc(NC(=O)N2CCC[C@H]2C(N)=O)sc1-c1ccnc(C(C)(C)C(F)(F)F)c1 [Alpelisib, alpelisib, reference compound]
- serum insulin [1]: raised serum insulin
- Δ Insulin, one-hour post dose [1]: +1.07^NS ng/mL
- GI50 [2]: 125 nM
- GI50 [3]: 256 nM
- GI50 [4]: 28 nM
- GI50 [5]: 268 nM

SMILES: Cc1c([C@@H](NC(=O)Nc2cnc(N)nc2)C(F)(F)F)oc2c(F)cc(F)cc12 (single isomer, unassigned) [Compound 1]
- pIC50 (CAL148 cells): 6.15
- pIC50 (BT20 cells): 6.18
- inhibition of AurB / phospho-H3 (Ser10) in cells [6]: no significant inhibition of AurB; also recorded: limited AurB inhibition in cells
- growth sensitivity of PI3Kα helical-domain mutant tumor cells ([7]; compared with kinase-domain mutants): nearly the same level of growth sensitivity
- sensitivity of PI3Kα kinase-domain mutant cell lines versus WT cell lines ([7]; grouped by PIK3CA status): significantly more sensitive
- tumor growth / tumor volume ([8]; Compound 1 100 mg/kg PO QD): decreases tumor volume; also recorded: Strong tumor growth inhibition and stasis
- T/C ([8]; Compound 1 100 mg/kg QD): 9%
- pIC50 (SKBR3 cells): 5.81
- pIC50 (DETROIT562 cells): 6.61
- pIC50 (AurB kinase; Example 8): 5.80
- inhibition at 10 µM (AurB kinase; at 10 μM): > 50%
- pIC50 (AurB kinase; legend of FIG. 5G): ~5.78
